Laboratory results taken from patent publication US12616754B2, “Composition for delivery of a bioactive agent and method of manufacture and use thereof” (priority 2020, dated 2026).

Experiments:
Test in all cases: Cell viability WST-8 assay
Type in all cases: cell-based
[1] = system: A549 lung adenocarcinoma cells; settings: A549, 24 h
Experimental: (§1) A549, BEAS-2B, H1299 and LL2 cells were cultured in 96-well plates at a density of 1×10^4 cells/well in DMEM supplemented with 2.0 mM L-glutamine, 50 μg/mL gentamicin, and 10% (v/v) fetal bovine serum at 37° C. in 5% CO2. Cells were then treated with various concentrations of free DOX, DNA NGs, and DNA-DOX NGs. After 24 h incubation, cell proliferation was evaluated using a WST-8 reagent (Dojindo Molecular Laboratories, Japan). After transferring the supernatant to 96-well plates, the supernatant was measured on a VersaMax Microplate Reader (Molecular Devices, Sunnyvale, CA, USA) at the wavelength of 405 nm. Cell viability was determined using the following equation: cell viability (%)=[(Abs405 nm in the treated sample cells−Abs405 nm in blank)/(Abs405 nm in untreated control cells−Abs405 nm in blank)]×100, wherein Abs405 nm refers to absorbance at 405 nm.

[2] = system: BEAS-2B bronchial epithelial cells; settings: 24 h
Experimental: as §1

[3] = system: H1299 non-small cell lung carcinoma cells; settings: H1299, 24 h
Experimental: as §1

[4] = system: LL2 Lewis lung carcinoma cells; settings: LL2, 24 h
Experimental: as §1

`COc1cccc2c1C(=O)c1c(O)c3c(c(O)c1C2=O)C[C@@](O)(C(=O)CO)C[C@@H]3O[C@H]1C[C@H](N)[C@H](O)[C@H](C)O1.Cl` [Free DOX, doxorubicin hydrochloride] was tested, and the IC50 [1] was 2.92 µg/mL, the IC50 [2] was 5.11 µg/mL and the IC50 [3] was 18.9 µg/mL. For the same compound, the IC50 [4] was 2.33 µg/mL.
